Assay results from patent US10011571B2, “Preparation method for aromatic heterocyclic compound used as selective JAK3 and/or JAK1 kinase inhibitor and application of aromatic heterocyclic compound” (SHENZHEN CHIPSCREEN BIOSCIENCES, LTD., priority 2014, dated 2018).
Structures can show the parent of a compound that is named as a salt.

What was measured:
[1] = target: JAK3 (Homo sapiens (Human), UniProt P52333); test: Z'-LYTE enzymatic activity detection, JAK3; assay type: biochemical; details: test compound 30 nM; for inhibition at 0.03 µM: read-out: JAK3 % inhibitory rate @30 nM
JAK3, sequence (P52333 whole entry): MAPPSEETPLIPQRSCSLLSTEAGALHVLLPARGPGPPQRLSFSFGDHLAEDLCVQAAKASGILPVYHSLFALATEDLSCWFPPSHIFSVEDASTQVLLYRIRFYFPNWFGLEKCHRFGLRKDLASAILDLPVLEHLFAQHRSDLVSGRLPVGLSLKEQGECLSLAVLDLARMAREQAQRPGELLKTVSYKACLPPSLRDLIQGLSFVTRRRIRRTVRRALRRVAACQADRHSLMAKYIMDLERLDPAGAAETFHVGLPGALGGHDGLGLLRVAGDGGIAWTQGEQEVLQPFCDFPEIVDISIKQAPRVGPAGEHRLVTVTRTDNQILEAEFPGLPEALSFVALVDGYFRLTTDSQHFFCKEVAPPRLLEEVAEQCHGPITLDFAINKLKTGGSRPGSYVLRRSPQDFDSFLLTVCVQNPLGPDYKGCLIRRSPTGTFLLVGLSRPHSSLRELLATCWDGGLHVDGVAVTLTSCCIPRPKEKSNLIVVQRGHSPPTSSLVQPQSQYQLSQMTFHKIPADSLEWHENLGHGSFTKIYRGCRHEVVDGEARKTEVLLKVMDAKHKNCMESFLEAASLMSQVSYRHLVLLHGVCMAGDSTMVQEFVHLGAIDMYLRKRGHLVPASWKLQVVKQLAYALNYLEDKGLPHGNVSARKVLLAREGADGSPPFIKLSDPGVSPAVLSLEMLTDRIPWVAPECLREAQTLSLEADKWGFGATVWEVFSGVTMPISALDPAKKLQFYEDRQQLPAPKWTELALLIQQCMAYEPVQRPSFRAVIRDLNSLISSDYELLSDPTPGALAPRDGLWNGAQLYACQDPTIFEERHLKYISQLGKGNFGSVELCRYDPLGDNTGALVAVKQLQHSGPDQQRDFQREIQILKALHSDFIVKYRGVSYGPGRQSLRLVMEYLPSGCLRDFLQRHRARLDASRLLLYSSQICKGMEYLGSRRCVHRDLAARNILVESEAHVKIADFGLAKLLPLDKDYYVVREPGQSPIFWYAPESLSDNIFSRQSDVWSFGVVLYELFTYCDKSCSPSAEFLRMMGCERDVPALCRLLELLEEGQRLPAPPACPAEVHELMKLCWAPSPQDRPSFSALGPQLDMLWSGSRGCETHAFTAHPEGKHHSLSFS
How it was run: (§1)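 GST-tagged human recombinant kinases with Z′-LYTE peptides (Tyr6 for JAK1, Tyr4 for JAK2 and JAK3), ATP from kit, reacted 1 h at room temperature; development 1 h, ratio 445/520 nm at 400 nm excitation gives phosphorylation. Inhibition vs solvent control at 30 nM (JAK2, JAK3) or 300 nM (JAK1); tofacitinib as positive control.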

[2] = tested on: HUVEC cells; test: Cell growth activity assay (MTS), HUVEC cell model; assay type: cell-based; details: Homo sapiens, 72 h; for activity at 10 µM: read-out: HUVEC % growth rate @10 μM
Excerpt: MTS assay is a routine method for cell toxicity detection. The basic principle is based on the capacity of dehydrogenase in the mitochondria of living cells to reduce a novel yellow […] MTS to formazan, so that the amount of living cells is proportional to the amount of formazan product by detecting the absorbance at 490 nm (OD), thereby speculating the amount of living cells according to the OD value, and understanding the capacity of the test compound to inhibit the growth of cells or to kill the cells.
HeLa cell is a human cervical cancer cell line, and belongs to epithelial tumor cell line; HUVEC is a human umbilical vein endothelial cell, and belongs to primary endothelial cell; both types of cells express all subtypes except for JAK3.
The change of JAK kinase activity has no significant influence on other cell types except for the immune cells, and both cell models mentioned above are mainly used to evaluate whether there are any other kinase targets besides JAK kinases or there are nonselective cell toxicities.
In this experiment, a cultured cell model is incubated with the test compounds at different concentrations for a specific duration. The effect of the treatment by the test compound on the growth of cells is detected using MTS assay.
MTS is performed according to routine procedure in a 96-well plate.
The model cells are inoculated into each well of the 96-well plate at an appropriate concentration (about 5000 cells/well). After 24 h, the test compounds are added at different concentration gradients (the highest final concentration is 40 μM). A solvent control (DMSO) and a negative control are also performed at the same time. Each experiment is repeated for 3 times. The cells are detected after cultured for another 72 h.
After all culture medium is aspirated out of the well, 100 μL fresh medium and 20 μL pre-formulated mixture of MTS and PMS (in a ratio of 20:1) are added to each well. After incubation at 37° C. for 2 h, it is then detected by a microplate reader (490 nm).
The cell growth inhibitory rate and GI50 of the test compound are calculated as above.
Based on the above method, cytological evaluation is performed to the compounds described herein (for the detection of CTLL-2 cell, the concentration of the test compound is 300 nM; […]).

[3] = target: JAK1 (Homo sapiens (Human), UniProt P23458); test: Z'-LYTE enzymatic activity detection, JAK1; assay type: biochemical; details: test compound 300 nM; for inhibition at 0.3 µM: read-out: JAK1 % inhibitory rate @300 nM
JAK1, sequence (P23458 whole entry): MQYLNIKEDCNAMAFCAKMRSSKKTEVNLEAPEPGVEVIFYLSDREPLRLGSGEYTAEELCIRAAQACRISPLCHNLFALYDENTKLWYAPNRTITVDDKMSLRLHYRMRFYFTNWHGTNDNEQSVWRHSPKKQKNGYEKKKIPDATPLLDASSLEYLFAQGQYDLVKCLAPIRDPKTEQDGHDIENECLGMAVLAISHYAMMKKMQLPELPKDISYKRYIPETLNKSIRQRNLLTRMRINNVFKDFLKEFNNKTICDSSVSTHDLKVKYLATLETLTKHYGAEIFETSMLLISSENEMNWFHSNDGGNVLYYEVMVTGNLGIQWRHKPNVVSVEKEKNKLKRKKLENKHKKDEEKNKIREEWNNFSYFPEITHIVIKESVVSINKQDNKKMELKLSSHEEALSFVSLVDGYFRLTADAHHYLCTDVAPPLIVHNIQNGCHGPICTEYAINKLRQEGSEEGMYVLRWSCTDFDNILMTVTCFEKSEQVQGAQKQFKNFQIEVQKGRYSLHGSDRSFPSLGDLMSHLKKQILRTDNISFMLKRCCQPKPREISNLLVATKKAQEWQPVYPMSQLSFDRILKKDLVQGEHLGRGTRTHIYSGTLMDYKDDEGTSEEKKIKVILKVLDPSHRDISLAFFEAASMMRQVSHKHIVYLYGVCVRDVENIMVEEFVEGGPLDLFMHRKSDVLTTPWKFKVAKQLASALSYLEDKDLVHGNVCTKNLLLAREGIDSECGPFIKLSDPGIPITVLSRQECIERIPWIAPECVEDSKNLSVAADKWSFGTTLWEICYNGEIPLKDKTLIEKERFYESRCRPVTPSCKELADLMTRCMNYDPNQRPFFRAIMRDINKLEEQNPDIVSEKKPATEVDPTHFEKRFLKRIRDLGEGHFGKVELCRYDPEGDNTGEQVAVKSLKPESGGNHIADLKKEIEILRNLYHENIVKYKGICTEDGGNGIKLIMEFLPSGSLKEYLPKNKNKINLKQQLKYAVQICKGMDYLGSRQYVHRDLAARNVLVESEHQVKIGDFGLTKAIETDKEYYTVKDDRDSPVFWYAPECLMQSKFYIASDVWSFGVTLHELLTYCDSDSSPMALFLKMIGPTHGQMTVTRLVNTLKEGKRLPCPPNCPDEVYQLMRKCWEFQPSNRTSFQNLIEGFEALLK
How it was run: as §1

[4] = tested on: CTLL-2 cells; test: Cell growth activity assay (MTS), CTLL-2 cell model; assay type: cell-based, mouse; details: for activity at 0.3 µM: CTLL-2, 300 nM, read-out: CTLL-2 % growth rate @300 nM
How it was run: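 Mouse IL-2-dependent T-cell line seeded ~20,000 cells/well, compounds added after 24 h at gradient concentrations (top 10 μM; CTLL-2 evaluation at 300 nM), cultured another 24 h. MTS/PMS added, 2 h at 37° C, absorbance 490 nm; inhibition vs DMSO control after negative-control background subtraction, GI50 calculated; triplicate.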

[5] = tested on: HeLa cells; test: Cell growth activity assay (MTS), HeLa cell model; assay type: cell-based, human; design: activity: dose or concentration left out as unconfirmed; details: 72 h; for activity: read-out: HeLa % growth rate
How it was run: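 HeLa human cervical cancer cells were plated at about 5000 cells/well in a 96-well plate. After 24 h, test compounds were added in concentration gradients (highest final concentration 40 μM), alongside a DMSO solvent control and a negative control. After another 72 h, the medium was replaced with 100 μL fresh medium plus 20 μL MTS/PMS (20:1). Plates were incubated 2 h at 37° C. and absorbance was read at 490 nm to give growth inhibition and GI50.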

[6] = target: JAK2 (Homo sapiens (Human), UniProt O60674); test: Z'-LYTE enzymatic activity detection, JAK2; assay type: biochemical; details: test compound 30 nM; for inhibition at 0.03 µM: read-out: JAK2 % inhibitory rate @30 nM
JAK2, sequence (O60674 whole entry): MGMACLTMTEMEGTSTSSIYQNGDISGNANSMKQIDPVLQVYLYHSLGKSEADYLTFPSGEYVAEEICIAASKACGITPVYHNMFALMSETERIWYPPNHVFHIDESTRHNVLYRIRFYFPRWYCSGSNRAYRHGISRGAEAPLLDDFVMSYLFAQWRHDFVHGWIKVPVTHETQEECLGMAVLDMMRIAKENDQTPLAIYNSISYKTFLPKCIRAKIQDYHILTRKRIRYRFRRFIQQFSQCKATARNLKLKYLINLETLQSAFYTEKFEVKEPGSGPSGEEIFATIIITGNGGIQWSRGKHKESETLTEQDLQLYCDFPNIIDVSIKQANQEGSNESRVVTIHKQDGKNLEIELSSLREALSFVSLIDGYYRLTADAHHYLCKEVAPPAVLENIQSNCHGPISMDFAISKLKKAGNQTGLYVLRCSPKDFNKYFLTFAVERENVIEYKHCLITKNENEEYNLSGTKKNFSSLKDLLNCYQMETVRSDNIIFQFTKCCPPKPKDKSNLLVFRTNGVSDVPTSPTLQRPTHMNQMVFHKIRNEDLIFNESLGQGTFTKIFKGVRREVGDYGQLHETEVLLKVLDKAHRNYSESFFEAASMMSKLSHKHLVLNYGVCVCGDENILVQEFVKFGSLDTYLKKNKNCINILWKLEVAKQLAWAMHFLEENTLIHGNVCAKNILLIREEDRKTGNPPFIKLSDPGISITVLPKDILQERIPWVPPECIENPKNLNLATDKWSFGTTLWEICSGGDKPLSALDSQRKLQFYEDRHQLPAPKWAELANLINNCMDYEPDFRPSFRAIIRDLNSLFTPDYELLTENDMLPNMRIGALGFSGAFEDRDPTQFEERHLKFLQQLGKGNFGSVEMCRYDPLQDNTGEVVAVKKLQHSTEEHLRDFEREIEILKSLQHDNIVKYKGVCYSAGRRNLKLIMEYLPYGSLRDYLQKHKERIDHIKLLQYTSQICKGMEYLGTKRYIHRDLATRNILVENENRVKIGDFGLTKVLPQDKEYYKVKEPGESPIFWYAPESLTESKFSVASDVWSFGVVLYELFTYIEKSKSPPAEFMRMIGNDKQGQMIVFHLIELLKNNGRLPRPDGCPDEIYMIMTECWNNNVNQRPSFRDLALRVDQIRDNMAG
How it was run: as §1

[7] = tested on: collagen-induced arthritis (CIA) model of rats; test: Collagen-induced arthritis (CIA) model of rats; assay type: in vivo; details: rat CIA
Method: Objective: in this test, arthritis is induced by chicken collagen in Wistar rats. After in vivo administration of the compounds of Example 7 and Example 22, the change of the disease index for arthritis in rats is evaluated to determine the therapeutic effect of the test compounds on rat arthritis.
Experimental animals: 36 female Wistar rats were purchased from the animal experiment center, Sun Yat-Sen University (Guangzhou) with the body weight ranging from 180 to 200 g at the beginning of experiment. Four groups (8 rats in each group) were used as the arthritis model, and another group (4 rats) was used as normal control.
Materials: chicken type II collagen and Freund's complete adjuvant were purchased from Beijing Biolead Science and Technology Development Co., Ltd. Positive control: methotrexat (MTX).
Preparation method: the test compounds were prepared by adding them to freshly prepared 0.2% CMC-Na+0.1% Tween-80 solution in sterile water to a desired concentration and thoroughly mixing through ultrasound.
CIA model: the chicken collagen was fully emulsified in equal volume of freud's complete adjuvant, and subcutaneously injected at the tail root of the rat on day 0 for sensitization (250 μL/rat). Another injection was performed at the tail root on day 7 for supplementary immunization (100 μL/rat). After arthritis occurred (on about day 13), the rats were randomly divided into 4 groups with 8 rats in each group. Administration started on day 14 after the first immunization, and lasted for 14 days. The limbs of a rat were visually inspected, and the severity of arthritis was scored in a range from […]: 0=normal; 1=a slight symptom, with signs, such as red and swollen ankle or wrist; 2=moderate red and swollen ankle or wrist; 3=severe red and swollen paw, including toes; 4=severe swollen joint accompanied with dysfunction; the highest score for each rat was 16. The thickness of toes of posterior limbs and the paw volume were measured at the same time.
Medication: the rats were i.g. administered with the compound of Example 7 at a concentration of 40 mg/kg twice/day; or the rats were i.g. administered with the compound of Example 22 at a concentration of 40 mg/kg twice/day. For the positive control, 5 mg/kg MTX was intraperitoneally injected twice a week. The i.g. administration of solvent was used as the negative control. The data obtained 14 days after administration and before administration were compared.

[8] = 14 days after administration, Examples 40 mg/kg i.g. twice/day, MTX 5 mg/kg i.p. twice a week

Row | SMILES | JAK3 RV (ratio between the inhibitory rate of the test compound and that of Xeljanz) [1] | inhibition at 0.03 µM [1] | activity at 10 µM [2] | JAK1 RV (ratio between the inhibitory rate of the test compound and that of Xeljanz) [3] | inhibition at 0.3 µM [3] | activity at 0.3 µM ([4]; Mus musculus, 24 h) | activity ([5]; Homo sapiens, HeLa) | JAK2 RV (ratio between the inhibitory rate of the test compound and that of Xeljanz) [6] | inhibition at 0.03 µM [6] | other results
1 | C=CC(=O)Nc1cc(Nc2ncc(Cl)c(NCCCNC(=O)c3ccc(F)cc3)n2)ccc1F [Example 17, N-(3-(2-(3-acrylamido-4-fluoro-phenylamino)-5-chloropyrimidinyl-4-amino)propyl)-4-fluorobenzamide] | 0.97 | 84% | 1% | 0.93 | 79% | 20% | 1% | 0.03 | 1% | 
2 | C=CC(=O)N(C)c1cc(Nc2ncc(C)c(NCCCNC(=O)c3ccc(F)cc3)n2)ccc1F [Example 19, 4-fluoro-N-(3-(2-(4-fluoro-3-(N-methylacrylamido)phenylamino)-5-methylpyrimidinyl-4-amino)propyl)benzamide] |  | 59% | 136% |  | 39% | 67% | 108% |  | 0% | 
3 | C=CC(=O)N(C)c1cc(Nc2ncc(C)c(NCCCNC(=O)c3ccc(C(F)(F)F)cc3)n2)ccc1F [Example 21, N-(3-(2-(4-fluoro-3-(N-methylacrylamido)phenylamino)-5-methylpyrimidinyl-4-amino)propyl)-4-trifluoromethylbenzamide] | 0.82 | 71% | 102% | 0.69 | 59% | 57% | 94% | 0.07 | 2% | 
4 | C=CC(=O)N(C)c1cc(Nc2ncc(Cl)c(NCCCNC(=O)C3CCN(C)CC3)n2)ccc1F [Example 27, N-(3-(5-chloro-2-(4-fluoro-3-(N-methylacrylamido)phenylamino)pyrimidinyl-4-amino)propyl)-1-methylpiperidinyl-4-formamide] | 0.59 | 35% | 6% | 0.45 | 42% | 85% | 30% |  |  | 
5 | C=CC(=O)Nc1cc(Nc2ncc(Cl)c(NCCCNC(=O)c3ccc(C#N)cc3)n2)ccc1F [Example 28, N-(3-(2-(3-acrylamido-4-fluorophenylamino)-5-chloropyrimidinyl-4-amino)propyl)-4-cyano-benzamide] | 0.85 | 81% | 98% | 0.40 | 34% | 77% | 81% | 0.03 | 2% | 
6 | C=CC(=O)N(C)c1cc(Nc2ncc(Cl)c(NCCCNC(=O)c3ccc(C(F)F)cc3)n2)ccc1F [Example 115, N-(3-(5-chloro-2-(4-fluoro-3-(N-methylacrylamido)phenylamino)pyrimidinyl-4-amino)propyl)-4-difluoromethylbenzamide] | 0.98 | 81% |  | 0.49 | 42% | 3% | 71% |  | 0% | 
7 | C=CC(=O)N(C)c1cc(Nc2ncc(Cl)c(NCCCCCCNC(=O)c3ccc(C#N)cc3)n2)ccc1F [Example 123, N-(6-(5-chloro-2-(4-fluoro-3-(N-methylacrylamido)phenylamino)pyrimidinyl-4-amino)hexyl)-4-cyanobenzamide] | 0.95 |  |  |  |  |  |  |  |  | JAK3 % inhibitory rate @30 nM [1]: 79%; JAK1 % inhibitory rate @300 nM [3]: 0%; CTLL-2 % growth rate @300 nM ([4]; 300 nM, 24 h): 5%; HeLa % growth rate @10 μM [5]: 5%; JAK2 % inhibitory rate @30 nM [6]: 0%
8 | CN(Cc1cnc2nc(N)nc(N)c2n1)c1ccc(C(=O)N[C@@H](CCC(=O)O)C(=O)O)cc1 [MTX, methotrexate, reference compound] |  |  |  |  |  |  |  |  |  | Inhibitory rate for arthritis score % [7, 8]: 73.1%; Inhibitory rate for paw volume % [7, 8]: 43.1%; Inhibitory rate for toe thickness % [7, 8]: 70.2%; Body weight growth rate % ([7]; 14 days after administration, solvent = 100.0, Examples 40 mg/kg i.g. twice/day, MTX 5 mg/kg i.p. twice a week): 95.4%; toxicity to the rats judged from body weight ([7]; compared to the solvent group): certain toxicity
9 | C[C@@H]1CCN(C(=O)CC#N)C[C@@H]1N(C)c1ncnc2[nH]ccc12 [Xeljanz, tofacitinib citrate, reference compound] |  |  |  |  |  |  |  |  |  | GI50 [2]: > 40 µM; GI50 ([4]; Mus musculus, CTLL-2, 24 h): 67 nM; GI50 ([5]; Homo sapiens, HeLa): > 40 µM
